For series [1], the target named is T1, CaMKK2 auto-phosphorylation (Homo sapiens, UniProt Q96RR4).
T1 construct: endogenous in cells; host or cells: HEK293
Description: HEK293 cells, ionomycin stimulation, Western blot for phospho-CaMKK2. In kind it is cell-based. Particulars: 10 μM; for inhibition of CaMKK2 auto-phosphorylation (densitometry): 2 hours pre-treatment, ionomycin 0.5 μg/mL 15 minutes; for inhibition of CaMKK2 auto-phosphorylation compared to STO-609: versus STO-609 10 μM. On the procedure:
(§1) Preliminary screening of Compounds EY301-EY305 was performed in vitro in HEK293 cells (all tested at 10 μM). In brief, HEK293 cells were cultured to sub confluence in […] complete media and 1% fetal bovine serum (FBS), incubated at 37° C. in 5% CO2. Cultured cells were then switched to serum-free media overnight prior to initiation of experiments. […] Cells were then stimulated with the calcium ionophore ionomycin (0.5 μg/mL) for 15 minutes, following which the cells were washed, harvested, and lysed for recovery of total protein using standard methods. Following standard protein gel electrophoresis, Western blot was then performed for either phospho-CaMKK2 (FIG. 4A) or phospho-AMPK (FIG. 4B) for each condition. Studies were performed in triplicate.
(In general: Immunoblotting shows a protein as a band on a membrane.)

The subject of another series is AMPK phosphorylation. As to the kind of experiment: HEK293 cells, ionomycin stimulation, Western blot for phospho-AMPK. It is filed as cell-based. Particulars: 10 μM; for inhibition of phospho-AMPK (densitometry): 2 hours pre-treatment, ionomycin 0.5 μg/mL 15 minutes; for inhibition of phospho-AMPK compared to STO-609: versus STO-609 10 μM. The method, then: as §1
For the next series, the system named is wild-type BALB/c mice. Description: NonGLP toxicology, in vivo tolerability of topically administered SMICs. The conditions noted are these: topical 1.5 mg/mL twice daily for 14 days. On the procedure: NonGLP toxicology studies of locally administered candidate SMICs EY1006.A001.B001 and EY1001.A002.B001 was assessed in 2-3-month old wild-type BALB/c mice. assessing local toxicity by clinical assessment and by histopathology. Both compounds were topically administered at 1.5 mg/mL twice daily for 14 days.

The subject of another series is OGVHD mouse model. As to the kind of experiment: Mouse model of OGVHD, proof-of-concept with topical lead SMICs (Example 11). It is filed as in vivo, mice. Particulars: for prevention of signs of OGVHD versus vehicle and prednisolone: 1.5 mg/mL topical daily for two weeks, p<0.05 vs vehicle or prednisolone. On the procedure: Preclinical proof-of-concept studies in a mouse model of OGVHD were performed to assess the clinical efficacy of topical administration of the two most promising candidate SMICs identified in Examples 6 and 7, EY1006.A001.B001 and EY1001.A002.B001. […] Briefly, the OGVHD mouse model was initiated by isolation of bone marrow and splenic T cells from 2-3-month old mice C57BL/6J donor mice, and transplantation of isolated bone marrow and T cells to recipient 2-3-month old BALB/c mice, following ablation of recipient bone marrow. Recipient BALB/c mice were then allowed to convalesce for approximately 14 days before initiation of further experimental procedures.
OGVHD clinical findings include lid margin edema, lid crusting, tear film disruption, conjunctival chemosis, and keratopathy. These findings were clinically graded following one week and two weeks of treatment using a quantitative scoring system adapted from previously published studies (33, 34). […] By contrast, vehicle control-treated eyes had lid margin swelling and scarring with lash and periocular fur loss, eyelid crusting, chemosis, abnormal tear film, and keratopathy. […] For this scoring system and experiment Mild disease was score 0-5, moderate disease was score 6-10 and severe disease was score >10.

Another series deals with experimental OGVHD. The text has this:
Ocular graft versus host disease (OGVHD), a disease in which T cells and macrophages are known to play key pathogenic roles, represents a model ocular inflammatory disease since A) it is known to share overlapping pathologic and clinical features with other, more common ocular inflammatory diseases (i.e. aqueous tear deficiency, meibomian gland dysfunction, uveitic disease, others); and B) the at-risk population is well defined since it occurs in individuals undergoing allogeneic bone marrow transplant for hematologic malignancies, autoimmune diseases, and other disorders. As such, experimental models of OGVHD represent attractive systems in which to study the therapeutic potential of targeting and inhibiting CaMKK2 for ophthalmic diseases. […] In brief, 2-3-month old mice of C57BL/6 and BALB/c strains are used for this model. C57BL/6 mice are sacrificed, following which RPMI-1640 medium is flushed in the diaphyseal channel of both recovered tibias and femurs. […]
Following BMT+T cell transfer, recipient BALB/c mice were allowed to convalesce for 14 days prior to initiation of experimental procedures. […] At the conclusion of the treatment period, eyes were then graded (in masked fashion) for signs of OGVHD and scored according to a modified clinical grading system (33, 34). […]

For series [2] the following is noted: with sonication; cited from earlier work.
For series [3] the following is noted: in vivo; cited from earlier work.
The target of series [4] is T2, aryl hydrocarbon receptors (Homo sapiens, UniProt P35869).
T2 sequence (P35869 11-848): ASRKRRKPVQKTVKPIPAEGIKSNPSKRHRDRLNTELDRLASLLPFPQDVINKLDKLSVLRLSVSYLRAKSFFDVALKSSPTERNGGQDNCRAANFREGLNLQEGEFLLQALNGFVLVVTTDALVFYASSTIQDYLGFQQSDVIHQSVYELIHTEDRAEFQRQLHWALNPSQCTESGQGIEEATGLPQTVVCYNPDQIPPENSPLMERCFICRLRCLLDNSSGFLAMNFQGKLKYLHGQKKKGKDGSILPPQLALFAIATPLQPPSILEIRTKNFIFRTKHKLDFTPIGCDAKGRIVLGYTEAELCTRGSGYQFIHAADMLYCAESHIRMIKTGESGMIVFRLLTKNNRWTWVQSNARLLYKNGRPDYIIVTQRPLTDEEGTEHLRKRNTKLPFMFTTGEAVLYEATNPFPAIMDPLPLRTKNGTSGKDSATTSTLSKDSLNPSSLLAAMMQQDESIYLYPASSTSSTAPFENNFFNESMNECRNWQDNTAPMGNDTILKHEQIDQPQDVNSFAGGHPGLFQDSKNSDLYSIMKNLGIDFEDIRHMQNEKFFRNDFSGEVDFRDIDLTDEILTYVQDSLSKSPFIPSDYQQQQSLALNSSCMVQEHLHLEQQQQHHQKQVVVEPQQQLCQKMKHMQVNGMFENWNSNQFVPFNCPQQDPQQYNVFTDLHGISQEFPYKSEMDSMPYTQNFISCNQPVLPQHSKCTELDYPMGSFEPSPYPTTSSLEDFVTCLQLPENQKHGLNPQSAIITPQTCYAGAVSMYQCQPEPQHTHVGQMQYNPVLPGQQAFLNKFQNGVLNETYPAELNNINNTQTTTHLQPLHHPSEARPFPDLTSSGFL
Particulars: suspected off-target effect; cited from earlier work.

These results are taken from patent US12221447B2, “Methods and compositions for drugs to treat ophthalmic diseases” (Duke University, priority 2018, dated 2025).

T1 sequence (Q96RR4 whole entry): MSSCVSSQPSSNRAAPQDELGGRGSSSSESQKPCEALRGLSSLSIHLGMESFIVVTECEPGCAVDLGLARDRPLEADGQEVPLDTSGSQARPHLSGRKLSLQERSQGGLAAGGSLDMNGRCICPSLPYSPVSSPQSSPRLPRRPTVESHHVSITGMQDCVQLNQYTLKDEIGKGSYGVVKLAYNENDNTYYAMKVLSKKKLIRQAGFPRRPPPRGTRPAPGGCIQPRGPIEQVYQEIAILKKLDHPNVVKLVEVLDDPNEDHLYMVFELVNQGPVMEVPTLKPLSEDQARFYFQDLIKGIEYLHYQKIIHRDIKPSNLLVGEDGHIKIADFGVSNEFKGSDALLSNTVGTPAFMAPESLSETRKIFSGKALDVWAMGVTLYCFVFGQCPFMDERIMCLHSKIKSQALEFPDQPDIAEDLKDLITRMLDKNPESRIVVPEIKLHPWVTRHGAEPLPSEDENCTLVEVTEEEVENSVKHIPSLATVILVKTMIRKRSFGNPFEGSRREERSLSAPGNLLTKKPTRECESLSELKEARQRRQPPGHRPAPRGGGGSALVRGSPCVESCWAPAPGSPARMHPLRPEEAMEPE

Consider `O=C(O)c1ccc2c(c1)[nH]c(=O)n1c3ccccc3nc21` [Compound 1], for which, in series [1], the “inhibition of CaMKK2 auto-phosphorylation (densitometry)” value was “robust inhibition” and the “inhibition of CaMKK2 auto-phosphorylation compared to STO-609” value is “more effective as compared to STO-609”.

Regarding `Cn1c(=O)n2c3ccccc3nc2c2ccc(C(=O)O)cc21` [Compound 3], the “inhibition of CaMKK2 auto-phosphorylation (densitometry)” value in series [1] is recorded as “robust inhibition”. In addition, in the series with AMPK phosphorylation, the “inhibition of phospho-AMPK (densitometry)” value is “partial inhibition” and the “inhibition of phospho-AMPK compared to STO-609” value is reported as “comparable to STO-609”.

For `CCn1c(=O)n2c3ccccc3nc2c2ccc(C(=O)O)cc21` [Compound 4], in series [1], the “inhibition of CaMKK2 auto-phosphorylation (densitometry)” value is listed as “robust inhibition” and the “inhibition of CaMKK2 auto-phosphorylation compared to STO-609” value is listed as “more effective as compared to STO-609”. Also, in the series on AMPK phosphorylation, the “inhibition of phospho-AMPK (densitometry)” value is on record as “partial inhibition” and the “inhibition of phospho-AMPK compared to STO-609” value was “comparable to STO-609”.

In the case of `CC(C)Cn1c(=O)n2c3ccccc3nc2c2ccc(C(=O)O)cc21` [Compound 5], in series [1], the “inhibition of CaMKK2 auto-phosphorylation (densitometry)” value was “robust inhibition”. In addition, in the series on AMPK phosphorylation, the “inhibition of phospho-AMPK (densitometry)” value was “partial inhibition” and the “inhibition of phospho-AMPK compared to STO-609” value is on record as “comparable to STO-609”.

In the case of `O=C(O)c1ccc2c(c1)n(CCF)c(=O)n1c3ccccc3nc21` [Compound 7], the systemic toxicity entry in the series on wild-type BALB/c mice is “no evidence of failure to thrive or mortality”. Also, the “prevention of signs of OGVHD versus vehicle and prednisolone” value in the series with OGVHD mouse model is “superior to vehicle and prednisolone”. The “severity of clinical OGVHD findings” value with OGVHD mouse model (1.5 mg/mL topical daily, from day 14 post-BMT for two weeks, n=5) was “reduced severity of clinical OGVHD findings with efficacy similar to STO-609”.

For the molecule `O=C(O)c1ccc2c3c1cccc3c(=O)n1c3ccccc3nc21` [STO-609, 7-oxo-7H-benzimidazo[2,1-a]benz[de]isoquinoline-3-carboxylic acid], the “severity of OGVHD, median score” value in the series with experimental OGVHD (STO-609 1.5 mg/mL local ocular, daily for 2 weeks from day 14 post-BMT, vehicle median score 17) amounted to 5. In the series on experimental OGVHD (stated as demonstrated and established for STO-609), the “reduction in OGVHD score” value is reported as 50%. Further, the “prevention of signs of OGVHD versus vehicle and prednisolone” value in the series with OGVHD mouse model is “superior to vehicle and prednisolone”. For the same molecule, in series [2], the “maximum concentration in DMSO” value is recorded as 10 mM. Further, the oral bioavailability result in series [3] is listed as “poor oral bioavailability”. In addition, the “off-target effect on aryl hydrocarbon receptors” value in series [4] is listed as “activation of aryl hydrocarbon receptors”.
